From patent publication US9133195B2, “Quaternary ammonium salt compounds of spirocyclopiperazines, preparation methods and uses thereof” (Peking University, priority 2006, dated 2015)
Where two headings read alike, the source gives them in different places.

Experiments:
Kunming mice [1] = assay: Acetic acid-induced writhing test; format: in vivo; conditions: Mus musculus, sc; 31.0 umol/kg s.c.; acetic acid i.p. after 30 min; writhing counted for 10 min
Experimental: Kunming mice, male and female in half, were randomly divided into groups with 8 mice in each group. The following groups were established: the normal saline (NS) control group, in which normal saline was administered by subcutaneous injection (s.c.); the test groups, in which 31.0 umol/kg quaternary ammonium salts compounds of piperazines of the present invention was administered by s.c. All drugs were dissolved in normal saline before use. The drug was injected at the dose of 0.1 ml/10 g. After 30 min, 0.2 ml of 0.6% acetic acid was injected intraperitoneally for each mouse. After 2˜3 min, the writhing reactions such as abdominal constriction, stretch of body and hind limbs, and hip raise occurred. Five minutes after acetic acid injection, the numbers of writhing was counted for 10 min. The percentage of inhibition was determined by using the following formula (1): Inhibition %=[(The numbers of writhing of control group−the numbers of writhing of drag injection group)/the numbers of writhing of control group]×100% (1) 2 Experimental Results
This experiment was carried out according to that of Example 36.

mice [2] = assay: Hot-plate test; format: in vivo; conditions: for pain threshold elevated rate (PTE %): at 2.0 h, 55° C. hot-plate; for ED50: Mus musculus, sc
Experimental: The temperature of the hot-plate was adjusted to 55° C. With licking hind paws and jumping as observation index, the time from placing of the animal on the hot plate to observation the above reactions was recorded as latency time, Latency time was measured for three times and calculated their mean value as Basal threshold or Baseline latency (BL), Mice with latency time of less than 5 s or more than 10 s were eliminated from the study. The remaining mice were divided into 8 groups, and 10 mice in each group. The following groups were established: the normal saline control group (NS), in which normal saline was administered (s.c.); the morphine control group (Mor), in which morphine was administered (s.c.) at the dose of 10.0 mg/kg; and compound LXM-10 groups, in which compound LXM-10 were administered (s.c.) at the dose of 0.75, 1.5, 3.0, 6.0, 12.0 and 24.0 mg/kg. All drugs were dissolved in normal saline before use. The drugs injected at the dose of 0.1 ml/10 g. The latency times were measured at 1.0, 1.5, 2.0, and 3.0 h after administering LXM-10. The cut-off time was set at 30 s to avoid skin scald. The percentage of pain threshold elevated rate (PTE %) was determined by using the following formula (2): PTE %=(The latency time of drug injection group−the latency time of control group at the corresponding time point)/the latency time of control group at the corresponding time point×100% (2)
To judge whether LXM-10 was effective as analgesic using this criterion: at the peak time point of this compound, the latency times of each compound LXM-10 group was greater than the mean latency time of normal saline control group at the corresponding time point plus three times of standard deviation. The effective percentage of each group was calculated made data conversion, then calculated the analgesic ED50 and 95% confidence interval (CI) in accordance with the formulae (3) and (4) using General Method for Calculating.
Wherein, Xm represents the logarithm value of the largest dose, i refers to group interval, ΣP refers to the sum of each group's efficiency, ΣP^2 represents the square sum of each group's efficiency, n refers to numbers of experimental groups.

ICR mice = assay: Formalin test; format: in vivo; conditions: 0.5 h after s.c., dose not stated
Experimental: Sixty ICR mice, male and female in half, were divided into six groups with 10 mice in each group. The following groups were established: the normal saline (NS) control group, in which normal saline was administered by s.c.; the aspirin control group, in which aspirin was administered by i.g. at the dose of 300 mg/kg; the morphine control, group, in which morphine was administered (s.c.) at the dose of 10.0 mg/kg; and compound LXM-10 groups, in which compound LXM-10 were administered (s.c.) at the dose of 0.75, 1.5, 3.0 and 6.0 mg/kg. All drugs were dissolved in normal saline before use. The drugs injected at the dose of 0.1 ml/10 g. 30 min after administration, animals were administered 20 ul of 2.5% formalin solution on the right front paws. The licking times were recorded immediately in the duration of 0˜5 minutes as phase I reaction; After 20 minutes, the licking times were recorded in the duration of 20˜25 minutes as phase II reaction. The percentage of pain inhibition (%) was determined by using the following formula (5): Pain inhibition %=[(The licking time of normal saline control group−the licking time of drug injection group)/the licking time of normal saline control group]×100% (5) 2. Experimental Results

mice [3] = assay: Addiction test (tail-erected response); format: in vivo; conditions: doses of 6.0, 12.0, 24.0 or 445.0 mg/kg
Experimental: (§1) All the following tests were carried out by using compound LXM-10 according to the routine methods.
They are quiet and normal.

Acute toxicity test = conditions: in vivo, sc
Experimental: as §1

mice [4] = assay: Function of motion coordination (rota-rod); format: in vivo; conditions: for Time of falling down from rota-rod: before treatment
Experimental: as §1
The effect of muscle-relaxed effect on the analgesic effect of LXM-10 was also excluded.

mice [5] = assay: Spontaneous motion in mice; format: in vivo; conditions: for Numbers of movement: before treatment
Experimental: as §1

Body temperature in mice = format: in vivo; conditions: for Rectal temperature: before treatment
Experimental: as §1

Kunming mice [6] = assay: Acetic acid-induced writhing test; format: in vivo; conditions: 0.5 h after s.c. administration

## CC1C[N+]2(CCN(CCc3ccccc3)CC2)CC(C)O1 (stereo not drawn) [LXM-10, 2,4-dimethyl-9-β-phenylethyl-3-oxo-6,9-diazaspiro[5.5]undecane chloride]
Kunming mice [1]
  inhibition in vivo at 31 µmol/kg: 65%
Mice [2]; 1.5 mg/kg s.c.
  pain threshold elevated rate (PTE %): 47.5%
Mice [2]; 3.0 mg/kg s.c.
  pain threshold elevated rate (PTE %): 54.8%
Mice [2]; 6.0 mg/kg s.c.
  pain threshold elevated rate (PTE %): 79.2%
Mice [2]; 12.0 mg/kg s.c.
  pain threshold elevated rate (PTE %): 126.8%
Mice [2]; hot-plate, at peak time, read-out: analgesic ED50
  ED50: 3.2 mg/kg
Mice [2]; hot-plate, read-out: ED50 95% confidence interval
  ED50: 1.8 to 5.4 mg/kg
Mice [2]; s.c., hot-plate
  analgesic effect persisted to: 3.0 h
  onset time of analgesic effect: 1.0 h
  peak time of analgesic effect: 2.0 h
ICR mice; first of three values
  percentage of pain inhibition, Phase II: 67.0%
ICR mice; second of three values
  percentage of pain inhibition, Phase II: 69.6%
ICR mice; third of three values
  percentage of pain inhibition, Phase II: 50.0%
Mice [3]
  tail-erected response: no tail-erected response
Acute toxicity test; read-out: LD50
  LD50: 514 mg/kg
Acute toxicity test; read-out: LD50 95% confidence interval
  LD50: 495 to 531 mg/kg
Mice [4]; 6.0 mg/kg, 0.5 h
  Time of falling down from rota-rod after treatment: 106.5 ± 8.88 s
Mice [4]; 6.0 mg/kg, 2.0 h
  Time of falling down from rota-rod after treatment: 110.0 ± 5.17 s
Mice [4]; 6.0 mg/kg, 3.5 h
  Time of falling down from rota-rod after treatment: 116.2 ± 3.75 s
Mice [4]; 6.0 mg/kg
  Time of falling down from rota-rod: 96.7 ± 9.17 s
Mice [4]; 12.0 mg/kg, 0.5 h
  Time of falling down from rota-rod after treatment: 109.6 ± 10.3 s
Mice [4]; 12.0 mg/kg, 2.0 h
  Time of falling down from rota-rod after treatment: 109.3 ± 8.15 s
Mice [4]; 12.0 mg/kg, 3.5 h
  Time of falling down from rota-rod after treatment: 119.6 ± 0.38 s
Mice [4]; 12.0 mg/kg
  Time of falling down from rota-rod: 96.6 ± 8.93 s
Mice [4]; 24.0 mg/kg, 0.5 h
  Time of falling down from rota-rod after treatment: 112.7 ± 5.18 s
Mice [4]; 24.0 mg/kg, 2.0 h
  Time of falling down from rota-rod after treatment: 117.5 ± 2.50 s
Mice [4]; 24.0 mg/kg, 3.5 h
  Time of falling down from rota-rod after treatment: 119.0 ± 1.00 s
Mice [4]; 24.0 mg/kg
  Time of falling down from rota-rod: 101.2 ± 9.15 s
Mice [4]; 6.0, 12.0, 24.0 mg/kg
  effect on function of motion coordination: did not significantly affect
Mice [5]; 6.0 mg/kg, 0.5 h
  Numbers of movement after treatment: 46.6 ± 2.63
Mice [5]; 6.0 mg/kg, 2.0 h
  Numbers of movement after treatment: 42.3 ± 3.38
Mice [5]; 6.0 mg/kg, 3.5 h
  Numbers of movement after treatment: 48.0 ± 5.00
Mice [5]; 6.0 mg/kg
  Numbers of movement: 46.8 ± 1.96
Mice [5]; 12.0 mg/kg, 0.5 h
  Numbers of movement after treatment: 48.0 ± 6.21
Mice [5]; 12.0 mg/kg, 2.0 h
  Numbers of movement after treatment: 48.1 ± 6.14
Mice [5]; 12.0 mg/kg, 3.5 h
  Numbers of movement after treatment: 48.0 ± 7.85
Mice [5]; 12.0 mg/kg
  Numbers of movement: 47.7 ± 2.55
Mice [5]; 24.0 mg/kg, 0.5 h
  Numbers of movement after treatment: 43.5 ± 4.21
Mice [5]; 24.0 mg/kg, 2.0 h
  Numbers of movement after treatment: 45.5 ± 6.05
Mice [5]; 24.0 mg/kg, 3.5 h
  Numbers of movement after treatment: 46.6 ± 3.69
Mice [5]; 24.0 mg/kg
  Numbers of movement: 50.2 ± 2.31
Mice [5]; 6.0, 12.0, 24.0 mg/kg
  effect on spontaneous motion: did not significantly affect
Body temperature in mice; 6.0 mg/kg, 0.5 h
  Rectal temperature after treatment: 37.3 ± 0.35 °C
Body temperature in mice; 6.0 mg/kg, 2.0 h
  Rectal temperature after treatment: 37.3 ± 0.28 °C
Body temperature in mice; 6.0 mg/kg, 3.5 h
  Rectal temperature after treatment: 37.5 ± 0.29 °C
Body temperature in mice; 6.0 mg/kg
  Rectal temperature: 37.7 ± 0.34 °C
Body temperature in mice; 12.0 mg/kg, 0.5 h
  Rectal temperature after treatment: 37.0 ± 0.26 °C
Body temperature in mice; 12.0 mg/kg, 2.0 h
  Rectal temperature after treatment: 37.1 ± 0.24 °C
Body temperature in mice; 12.0 mg/kg, 3.5 h
  Rectal temperature after treatment: 37.1 ± 0.20 °C
Body temperature in mice; 12.0 mg/kg
  Rectal temperature: 37.1 ± 0.09 °C
Body temperature in mice; 24.0 mg/kg, 0.5 h
  Rectal temperature after treatment: 37.5 ± 0.21 °C
Body temperature in mice; 24.0 mg/kg, 2.0 h
  Rectal temperature after treatment: 37.0 ± 0.19 °C
Body temperature in mice; 24.0 mg/kg, 3.5 h
  Rectal temperature after treatment: 37.3 ± 0.16 °C
Body temperature in mice; 24.0 mg/kg
  Rectal temperature: 37.0 ± 0.18 °C
Body temperature in mice; 6.0, 12.0, 24.0 mg/kg
  effect on body temperature: did not affect
Kunming mice [6]; 1.5 mg/kg
  percentage of pain inhibition: 63.4%
Kunming mice [6]; 3.0 mg/kg
  percentage of pain inhibition: 78.8%
Kunming mice [6]; 6.0 mg/kg
  percentage of pain inhibition: 79.2%
Kunming mice [6]; 12.0 mg/kg
  percentage of pain inhibition: 55.6%
